Results published in patent US9115073B2, “1,3-diphenylpropane derivatives, preparations and uses thereof” (GENFIT, priority 2011, dated 2015).
pEC50: −log10 of the molar value.

Tests used:
Assay type in all cases: cell-based
[1] = biological target: T1, hPPARgamma (Homo sapiens, UniProt P37231); assay: Gal4-hPPARgamma transactivation assay in COS-7 cells (luciferase); conditions: for pEC50: Gal4-hPPARγ(LBD) transactivation; for Gal4-hPPARγ(LBD) TOP (% ref): maximal relative activation vs reference; for Emax: COS-7, maximal relative activation vs reference, read-out: Gal4-hPPARγ(LBD) TOP (% ref)
T1 construct: Gal4-hPPARγ(LBD); Gal4 (fusion partner); expressed in transfected cells; host or cells: COS-7 (monkey kidney)
T1 sequence (P37231 238-503 limits assumed): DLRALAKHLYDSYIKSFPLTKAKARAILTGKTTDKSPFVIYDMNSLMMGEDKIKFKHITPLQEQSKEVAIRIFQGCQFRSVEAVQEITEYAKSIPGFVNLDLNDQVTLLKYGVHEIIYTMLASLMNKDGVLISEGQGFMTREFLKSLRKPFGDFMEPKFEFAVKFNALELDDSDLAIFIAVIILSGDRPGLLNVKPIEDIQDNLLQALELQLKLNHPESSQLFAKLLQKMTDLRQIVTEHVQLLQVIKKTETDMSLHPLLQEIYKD
Procedure: (§1) Monkey kidney COS-7 cells were maintained in standard culture conditions (Dulbecco's modified Eagle's minimal medium: DMEM) supplemented with 10% fetal calf serum, 1% sodium pyruvate, 1% essential amino acids and 1% antibiotics at 37° C. in a humidified atmosphere of 5% C02 and 95% air. The medium was changed every 2 days. All tested compounds were dissolved in DMSO. Cells were transfected using 2 μl JetPEI™ (Polyplus transfection)/μg of DNA. Briefly, 40 μg of DNA was transfected in a 225 cm^2 culture flask of adherent COS-7 cells (respecting the 1/50 ratio between the Gal4(RE)_TkpGL3 plasmid and the plasmid coding the nuclear receptor of interest (pGal4-hPPARalpha, pGal4-hPPARgamma, pGal4-hPPARdelta, pGal4-mPPARalpha, pGal4-mPPARgamma and pGal4-mPPARdelta) or of the pGal4phi plasmid (negative control). Cells were enzymatically detached and seeded in 384 well plates at the density of 20,000 cells/well and then incubated for 4 hours at 37° C. The activation was automatically performed, by using the Genesis Freedom 200™ (Tecan), in fresh medium supplemented with 2% of synthetic serum, free of lipids (Ultroser™, Biosepra) supplemented with the tested compounds (compound of interest or reference molecules) or vehicle (DMSO 0.1%). The luciferase activity was measured with the Steady-Glo Luciferase Assay System (Promega, Madison, Wis.). All transactivation experiments were performed at least 2 times. Activation curves were realized using SigmaPlot® (version 7.0 from SPSS Inc.) software and took into account all the experimental points. SimgaPlot® was also used to fit the standard curves and then determine the specific EC50 values, maximum effect versus reference molecules and Hill slope. The Emax effect of each new ligand is represented as the ratio of the maximal induction (plateau) obtained with the new ligand and the induction obtained with the corresponding reference compound. The reference compounds for PPARalpha, PPARgamma and PPARdelta were fenofibrate (100 μM), rosiglitazone (10 μM) and GW501516 (1 μM).

[2] = biological target: T2, hPPARalpha (Homo sapiens, UniProt Q07869); assay: Gal4-hPPARalpha transactivation assay in COS-7 cells (luciferase); conditions: for pEC50: Gal4-hPPARα(LBD) transactivation; for Gal4-hPPARα(LBD) TOP (% ref): maximal relative activation vs reference; for Emax: COS-7, maximal relative activation vs reference, read-out: Gal4-hPPARα(LBD) TOP (% ref)
T2 construct: Gal4-hPPARα(LBD); Gal4 (fusion partner); expressed in transfected cells; host or cells: COS-7 (monkey kidney)
T2 sequence (Q07869 239-466 limits assumed): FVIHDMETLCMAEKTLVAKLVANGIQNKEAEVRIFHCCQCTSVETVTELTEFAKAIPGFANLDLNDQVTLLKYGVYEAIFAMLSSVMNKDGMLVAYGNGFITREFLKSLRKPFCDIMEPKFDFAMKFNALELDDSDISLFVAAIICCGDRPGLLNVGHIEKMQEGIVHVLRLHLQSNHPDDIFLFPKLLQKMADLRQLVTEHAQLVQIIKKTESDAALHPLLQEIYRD
Procedure: as §1

[3] = biological target: T3, hPPARdelta (Homo sapiens, UniProt Q03181); assay: Gal4-hPPARdelta transactivation assay in COS-7 cells (luciferase); conditions: for pEC50: Gal4-hPPARδ(LBD) transactivation; for Gal4-hPPARδ(LBD) TOP (% ref): maximal relative activation vs reference; for Emax: COS-7, maximal relative activation vs reference, read-out: Gal4-hPPARδ(LBD) TOP (% ref)
T3 construct: Gal4-hPPARδ(LBD); Gal4 (fusion partner); expressed in transfected cells; host or cells: COS-7 (monkey kidney)
T3 sequence (Q03181 211-439 limits assumed): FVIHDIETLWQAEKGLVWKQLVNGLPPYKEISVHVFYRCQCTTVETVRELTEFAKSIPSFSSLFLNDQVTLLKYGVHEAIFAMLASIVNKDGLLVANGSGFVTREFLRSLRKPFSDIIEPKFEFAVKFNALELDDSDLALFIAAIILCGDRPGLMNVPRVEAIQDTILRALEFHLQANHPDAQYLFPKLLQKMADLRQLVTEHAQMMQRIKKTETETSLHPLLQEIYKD
Procedure: as §1

Structure (SMILES) | pEC50 [1] | Gal4-hPPARγ(LBD) TOP (% ref) [1] [% ref] | pEC50 [2] | Gal4-hPPARα(LBD) TOP (% ref) [2] [% ref] | pEC50 [3] | Gal4-hPPARδ(LBD) TOP (% ref) [3] [% ref] | Emax [1] [%] | Emax [2] [%] | Emax [3] [%] | other results
COC(c1ccc(Br)cc1)C1CC1c1cc(C)c(OC(C)(C)C(=O)O)c(C)c1 (racemic) [Cpd 1-2, 2-(4-(2-(methoxy(4-bromophenyl)methyl)cyclopropyl)-2,6-dimethylphenoxy)-2-methylpropanoic acid] | 7.72 | 77 | 6.73 | 33 | 7.27 | 83 | – | – | – | –
COC(c1ccc(C)cc1)C1CC1c1cc(C)c(OC(C)(C)C(=O)O)c(C)c1 (racemic) [Cpd 2-1, 2-(4-(2-(methoxy(4-methylphenyl)methyl)cyclopropyl)-2,6-dimethylphenoxy)-2-methylpropanoic acid] | 6.96 | – | 6.20 | – | 6.82 | – | 72 | 35 | 85 | –
COC(c1ccc(SC)cc1)C1CC1c1cc(C)c(OC(C)(C)C(=O)O)c(C)c1 (racemic) [Cpd 3-2, 2-(4-(2-(methoxy(4-(methylthio)phenyl)methyl)cyclopropyl)-2,6-dimethylphenoxy)-2-methylpropanoic acid] | – | 65 | – | 42 | – | 75 | – | – | – | –
COC(c1ccc(C(F)(F)F)cc1)C1CC1c1cc(C)c(OC(C)(C)C(=O)O)c(C)c1 (racemic) [Cpd 4-1, 2-(4-(2-(methoxy(4-(trifluoromethyl)phenyl)methyl)cyclopropyl)-2,6-dimethylphenoxy)-2-methylpropanoic acid] | 7.70 | – | 7.19 | – | 7.80 | – | 84 | 47 | 92 | –
CCCCOC(c1ccc(OC(F)(F)F)cc1)C1CC1c1cc(C)c(OC(C)(C)C(=O)O)c(C)c1 (racemic) [Cpd 5-2, 2-(4-(2-(butyloxy(4-(trifluoromethoxy)phenyl)methyl)cyclopropyl)-2,6-dimethylphenoxy)-2-methylpropanoic acid] | – | 72 | – | 47 | – | 60 | – | – | – | –
Cc1cc(C2CC2C(OCCC2CCCCC2)c2ccc(OC(F)(F)F)cc2)cc(C)c1OC(C)(C)C(=O)O (racemic) [Cpd 6-1, 2-(4-(2-(cyclohexylethyloxy(4-(trifluoromethoxy)phenyl)methyl)cyclopropyl)-2,6-dimethylphenoxy)-2-methylpropanoic acid] | 7.03 | – | 7.17 | – | 7.00 | – | 71 | 36 | 72 | –
Cc1cc(C2CC2C(OCCC2CCCCC2)c2ccc(OC(F)(F)F)cc2)cc(C)c1OC(C)(C)C(=O)O (racemic) [Cpd 6-2, 2-(4-(2-(cyclohexylethyloxy(4-(trifluoromethoxy)phenyl)methyl)cyclopropyl)-2,6-dimethylphenoxy)-2-methylpropanoic acid] | 7.47 | 79 | 7.59 | 38 | 6.88 | 66 | – | – | – | –
COC(c1ccc(OC(F)(F)F)cc1)C1CC1c1ccc(OC(C)(C)C(=O)O)c(C)c1 (racemic) [Cpd 7-1, 2-(4-(2-(methoxy(4-(trifluoromethoxy)phenyl)methyl)cyclopropyl)-2-methylphenoxy)-2-methylpropanoic acid] | 7.35 | – | 6.58 | – | 7.46 | – | 55 | 42 | 90 | –
COC(c1ccc(SC(F)(F)F)cc1)C1CC1c1cc(C)c(OC(C)(C)C(=O)O)c(C)c1 (racemic) [Cpd 9-1, 2-(4-(2-(methoxy(4-(trifluoromethylthio)phenyl)methyl)cyclopropyl)-2,6-dimethylphenoxy)-2-methylpropanoic acid] | 7.96 | – | 8.00 | – | 7.85 | – | 77 | 50 | 89 | –
CCOC(c1ccc(OC(F)(F)F)cc1)C1CC1c1cc(C)c(OC(C)(C)C(=O)O)c(C)c1 (racemic) [Cpd 10-1, 2-(4-(2-(ethoxy(4-(trifluoromethoxy)phenyl)methyl)cyclopropyl)-2,6-dimethylphenoxy)-2-methylpropanoic acid] | 7.02 | – | 7.42 | – | 7.85 | – | 74 | 51 | 90 | –
CCOC(c1ccc(OC(F)(F)F)cc1)C1CC1c1cc(C)c(OC(C)(C)C(=O)O)c(C)c1 (racemic) [Cpd 10-2, 2-(4-(2-(ethoxy(4-(trifluoromethoxy)phenyl)methyl)cyclopropyl)-2,6-dimethylphenoxy)-2-methylpropanoic acid] | 7.41 | – | 7.52 | 43 | 7.62 | 73 | – | – | – | –
Cc1cc(C2CC2C(OCc2ccccc2)c2ccc(OC(F)(F)F)cc2)cc(C)c1OC(C)(C)C(=O)O (racemic) [Cpd 11-2, 2-(4-(2-(benzyloxy(4-(trifluoromethoxy)phenyl)methyl)cyclopropyl)-2,6-dimethylphenoxy)-2-methylpropanoic acid] | – | 87 | – | 42 | – | 67 | – | – | – | –
COC(c1ccc(C(F)(F)F)cc1F)C1CC1c1cc(C)c(OC(C)(C)C(=O)O)c(C)c1 (racemic) [Cpd 12-2, 2-(4-(2-(methoxy(2-fluoro-4-(trifluoromethyl)phenyl)methyl)cyclopropyl)-2,6-dimethylphenoxy)-2-methylpropanoic acid] | – | 85 | – | 37 | – | 78 | – | – | – | –
COC(c1ccccc1OC(F)(F)F)C1CC1c1cc(C)c(OC(C)(C)C(=O)O)c(C)c1 (racemic) [Cpd 13-2, 2-(4-(2-(methoxy(2-(trifluoromethyloxy)phenyl)methyl)cyclopropyl)-2,6-dimethylphenoxy)-2-methylpropanoic acid] | – | 71 | – | 28 | – | 57 | – | – | – | –
COC(c1ccc(OC(F)(F)F)cc1)C1CC1c1cc(C)c(OC(C)(C)C(=O)O)c(C)c1 (racemic) [Cpd 14-1, 2-(4-(2-(methoxy(4-(trifluoromethoxy)phenyl)methyl)cyclopropyl)-2,6-dimethylphenoxy)-2-methylpropanoic acid] | – | – | – | – | – | – | – | – | – | Gal4-hPPARγ(LBD) TOP (% ref) ([1]; listed as cpd 14-1): 66 % ref; Gal4-hPPARδ(LBD) TOP (% ref) ([3]; listed as cpd 14-1): 81 % ref
COC(c1ccc(OC(F)(F)F)cc1)C1CC1c1cc(C)c(OC(C)(C)C(=O)O)c(C)c1 (racemic) [Cpd 14-2, 2-(4-(2-(methoxy(4-(trifluoromethoxy)phenyl)methyl)cyclopropyl)-2,6-dimethylphenoxy)-2-methylpropanoic acid] | – | – | – | – | – | – | – | – | – | Gal4-hPPARγ(LBD) TOP (% ref) ([1]; listed as cpd 14-2): 58 % ref; Gal4-hPPARα(LBD) TOP (% ref) ([2]; listed as cpd 14-2): 58 % ref; Gal4-hPPARδ(LBD) TOP (% ref) ([3]; listed as cpd 14-2): 74 % ref
